Reference: patent US11078245B2, “Colon and pancreas cancer peptidomimetics” (PRECISION BIOLOGICS, INC., priority 2010, dated 2021)
Entries after “also recorded” stand apart in the source; their conditions may differ. Ends that are not written are not given here.

Key:
NEO-101 antibody = experiment: 4-1-4-C12-KLH binding ELISA
CFPAC1 sup = molecular target: T1, CFPAC1 sup (Homo sapiens, UniProt P98088); experiment: Rabbit immunization, serum binding ELISA; format: in vivo, rabbits; conditions: rabbit serum after third injection
T1 construct: endogenous in cells; host or cells: CFPAC-1 (human pancreatic tumor cell line); cells or serum-free conditioned medium
Procedure: (§1) An exemplary NPC-1 antigen peptidomimetic, 4-1-4C12 (SEQ ID NO: 5) was conjugated to KLH (Keyhole Limpit Hemocyannin) (“4-1-4-C12-KLH”). […] Further, 4-1-4C12-KLH blocks NPC-1 binding to NPC-1C antigen specifically in competitive ELISA. After confirming the function of 4-1-4C12-KLH, 4-1-4C12-KLH was injected into rabbits. The immunized serum after third injection was tested by binding ELISA to check the function of 4-1-4C12-KLH induced antibody. The plate was coated with 4-1-4C12 peptide or CFPAC1 sup, diluted serum was added to the washed and blocked the plate. Bound rabbit IgG was detected by donkey anti-rabbit IgG-HRP.

4-1-4C12 peptide = experiment: Rabbit immunization, serum binding ELISA; format: in vivo, rabbits; conditions: rabbit serum after third injection
Procedure: as §1

NPC-1C antigen = experiment: 4-1-4C12-KLH competitive ELISA; format: binding
Procedure: as §1

Substance: 4-1-4-C12-KLH: 4-1-4C12 (SEQ ID NO: 5) conjugated to KLH (Keyhole Limpit Hemocyannin) (SLPDDWFRYINY; also: conjugated to KLH (keyhole limpet hemocyanin))
- binding to NEO-101 antibody (NEO-101 antibody): binds to NEO-101 antibody
- immunized serum binding to CFPAC1 supernatant (CFPAC1 sup): bind to CFPAC1 human pancreatic cell line supernatant; also recorded: dose dependent manner
- immunized serum binding to 4-1-4C12 peptide (4-1-4C12 peptide): binds to 4-1-4C12; also recorded: dose dependent manner
- blocking of NPC-1 binding to NPC-1C antigen (NPC-1C antigen): blocks
